pIC50: −log10 of the molar value. Converted amounts (≈) assume the structure as drawn.
Experiments:
[1] = molecular target: T1, C5a receptor (Homo sapiens, UniProt P21730); assay: C5a receptor binding assay ([125I]-human C5a, human peripheral blood neutrophil); details: [125I]-C5a 200 pM, 4° C. for 2 hr, read-out: IC50 value, inhibition of [125I]-human C5a binding
T1 construct: neutrophil fraction was separated from human peripheral intravenous blood; endogenous in cells; host or cells: human peripheral blood neutrophils (whole cells)
T1 sequence (P21730 1-350): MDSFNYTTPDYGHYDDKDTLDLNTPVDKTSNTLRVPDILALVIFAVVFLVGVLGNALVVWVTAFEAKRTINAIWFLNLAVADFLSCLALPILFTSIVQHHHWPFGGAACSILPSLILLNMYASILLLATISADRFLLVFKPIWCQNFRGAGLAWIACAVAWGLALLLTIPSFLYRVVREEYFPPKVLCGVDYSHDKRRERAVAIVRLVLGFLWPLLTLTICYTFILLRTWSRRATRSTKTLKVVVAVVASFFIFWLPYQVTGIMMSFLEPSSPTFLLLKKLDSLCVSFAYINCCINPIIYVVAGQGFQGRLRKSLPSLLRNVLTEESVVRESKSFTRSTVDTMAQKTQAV
Description: The C5a receptor binding inhibitory action of C5a and the test compound was evaluated by a receptor binding assay comprising of human peripheral blood neutrophil, which expresses the C5a receptor, and [^125I]-human C5a (Amersham Pharmacia Biotech) in a MultiScreen (MILLIPORE). First, neutrophil fraction was separated from human peripheral intravenous blood using lympholyte-poly (Cedarlane), and suspended in a Binding buffer [50 mM HEPES, 1 mM CaCl2, 5 mM MgCl2, 0.5% bovine albumin (BSA, SIGMA), 0.02% NaN3 (pH 7.2)]. The binding assay was started by the addition of 1×10^5 cells/50 μL neutrophil suspension, 25 μL of a test compound solution (obtained by dissolving the test compound in N,N-dimethylformamide to a final concentration of 10 mmol/L and diluting with binding buffer), and 25 μL of [^125I]-C5a solution (final concentration 200 pM), to each well of the MultiScreen. […] After drying the MultiScreen, the radioactivity on the filter was measured using a gamma counter.
The rate of inhibition (% inhibition) of C5a binding by the test compound was calculated by the following formula using the count value obtained without addition of the test compound as Total, the count value obtained with addition of non-labeled C5a as Non, and the count value obtained with addition of the test compound as Test. […]

[2] = tested on: C5a stimulated neutrophil; assay: Production of reactive oxygen species in C5a-stimulated neutrophil; type: cell-based; details: human neutrophil, C5a 3 nmol/L, luminol luminescence, 37° C.; read-out: IC50 value, inhibition of production of reactive oxygen species in C5a stimulated neutrophil
Description: A neutrophil fraction was separately taken from human peripheral venous blood using Lympholyte-poly (Cedarlane), and suspended in Hank's Balanced Salt Solution (HBSS, GIBCO BRL) containing 1% fetal bovine serum (FBS) and 1 mmol/L luminol (Wako Pure Chemical Industries, Ltd.). Reactive oxygen species was measured using a luminometer (MicroLumat, Berthold) for 96-well plate. […] Then, 25 μL of C5a (final concentration 3 nmol/L) was added and luminescence produced by the reaction of the luminol and the reactive oxygen species was measured with the lapse of time for 15 min. The rate of inhibition (% inhibition) of the production of reactive oxygen species in C5a stimulated neutrophil by the test compound was calculated by the following formula, wherein the peak value of the production of reactive oxygen species derived by C5a without addition of the test compound is Max, the peak value of the production of reactive oxygen species without addition of the test compound and without C5a stimulation is Min, and the peak value of the production of reactive oxygen species derived by C5a with the addition of the test compound is Test. […]

[3] = tested on: collagen-induced arthritis; assay: Collagen-induced arthritis in monkey (articular swelling score); type: in vivo, cynomolgus monkey
[4] = Evaluation of biological availability (bioavailability) in rat; type: in vivo; details: for AUC: rat, fasted female SD rats, plasma
Description: Free base•Form-I crystal was administered to female SD rats fasted from the day before the experiment and the plasma concentration was measured under the following conditions. As a result, the areas under blood concentration-time curve (AUC) of the drug after intravenous administration and oral administration are as shown in Table 1.
• Dosing formulation: 0.5 mg/ml in aqueous physiological saline. • Dose: 1 mg/2 ml/kg • Administration method: bolus administration from the tail vein Collection of blood samples: About 0.1-0.2 mL of blood was taken from the cervical vein at 3 min, 10 min, 30 min, 1 hr, 2 hr, 4 hr and 6 hr after administration. The blood was centrifuged, and the plasma was separated.
• Dosing formulation: 2 mg/ml suspension adjusted by gradually adding aqueous hydroxypropylmethylcellulose solution to the compound of the present invention thoroughly triturated in an agate mortar. • Dose: 10 mg/5 ml/kg • Administration method: Forcible administration into the stomach • Collection of blood samples: About 0.1-0.2 mL of blood was taken from the cervical vein at 30 min, 1 hr, 2 hr, 4 hr, 6 hr, 8 hr and 24 hr after administration. The blood was centrifuged, and the plasma was separated.
The plasma concentration of the administered compound was measured by LC-MS/MS.
LC conditions • Column: Capcellpak C18 UG-120 (2.0φ mm×50 mm, S-5 μm, Shiseido Co., Ltd.) • Mobile phase: acetonitrile • Flow rate: 0.25 mL/min • Column temperature: room temperature • Auto sampler temperature set to: 25° C. • Gradient setting: • 0 min→0.6 min:25%→25% • 0.6 min→3.6 min:25%→75% • 3.6 min→6 min:75%→75% • 6 min→6.1 min:75%→25% • 6.1 min→9.5 min:25%→25% • MS/MS conditions • Ionization method: ESI • Capillary temperature: 350° C. • Sheath gas pressure: 80 psi • Spray voltage: 4.5 kV.
The plasma concentration of the racemate was measured by a similar method, and the biological availability was calculated and found to be 20%.

[5] = Solubility test (Japanese Pharmacopoeia Solution 2); type: physicochemical; details: for solubility after 30 min: Japanese Pharmacopoeia Solution 2, 37° C., shaken 30 min
Description: An adequate amount of a sample was taken, and a test solution (The Japanese Pharmacopoeia Solution 2) was added to each to a concentration of about 1 mg/ml. The sample was dispersed by ultrasonication for 2 min, shaken at 37° C. for 30 min, and the solution was filtered through DISMIC13HP ([…]). The filtrate in the early stage (3 ml) was removed, the subsequent filtrate (500 μl) was precisely measured, and the dilution solution (water/acetonitrile/trifluoroacetic acid mixture=500:500:1, 500 μl) was accurately added to give a sample solution. The sample solution and the standard solution prepared in Experimental Example 5 were subjected to the measurement under the similar HPLC conditions as in Experimental Example 5.

[6] = Dissolution test (JP Dissolution Test Method 2, paddle method); type: physicochemical; details: JP second fluid 900 ml, paddle 50 rpm, 37° C., about 10 mg based on free form
Description: The compounds obtained in Examples 22, 24 and 25, free base•Form-I crystal, and the racemate of the compound of Example 3 were subjected to a dissolution test, and the dissolution rate was compared. According to this test method, the amount of dissolution relative to the content of each compound in the test solution is expressed in the dissolution rate (%), which was measured over time.
For the method of adding each compound, the compound (about 10 mg based on free form) was precisely weighed and directly added to a vessel. As the test solution, The Japanese Pharmacopoeia second fluid (900 ml) was used, and the test was performed according to The Japanese Pharmacopoeia Dissolution Test Method 2 (Paddle Method) at 50 rpm. The test temperature was 37° C. After the start of the test, solution for dissolution (10 ml) was taken at suitable times, and a test solution (10 ml) heated to 37° C. was soon carefully added for compensation. The collected solution for dissolution was passed through a filter (DISMIC 13HP PTFE (0.45 μm); Toyo Roshi Kaisha). The filtrate in the early stage (5 ml) was removed, the subsequent filtrate (500 μl) was precisely measured, and the dilution solution (water/acetonitrile/trifluoroacetic acid mixture=500:500:1, 500 μl) was accurately added to give a sample solution.
Separately, about 10 mg of the free base•Form-I crystal was precisely weighed, and a dilution solution (water/acetonitrile/trifluoroacetic acid mixture=500:500:1) was added to 50 ml sharp. This solution (2.5 ml) was precisely measured, and a dilution solution (water/acetonitrile/trifluoroacetic acid mixture=500:500:1) was added to 50 ml sharp. This was used as the standard solution of free base•Form-I crystal (10 μg/ml). The sample solution and the standard solution were measured under the HPLC conditions shown below, the peak areas AT and AS of the free base•Form-I crystal in each solution were measured, and the dissolution rate was determined by the following formula.
The nth dissolution rate (%) of free base•Form-I crystal=Wn/W100%×100 • W1: the first dissolution amount (mg) of free base•Form-I crystal
=(900×AT1)×WS/AS/1000 • Wn: the nth (n>1) dissolution amount (mg) of free base•Form-I crystal
={900×ATn+10×(AT1+AT2 . . . +ATn−1)}×WS/AS/1000 • W100%: cast amount (mg) of drug substance • Ws: collected amount (mg) of free base•Form-I crystal standard product • As: peak area of free base•Form-I crystal in standard solution • AT1: peak area of free base•Form-I crystal in sample solution by the first sampling • ATn: peak area of free base•Form-I crystal in sample solution by the nth sampling. • For racemate, the dissolution rate was calculated based on the total value of S form and R form. […]

CCn1cc(CN(C(=O)[C@H]2CCCc3c(O)cccc32)c2ccc(C(C)C)nc2)cn1 [Example 3, (1S)-(−)-N-[(1-ethyl-1H-pyrazol-4-yl)methyl]-5-hydroxy-N-(6-isopropylpyridin-3-yl)-1,2,3,4-tetrahydronaphthalene-1-carboxamide]
pIC50 [1]: 8.00
pIC50 [2]: 8.55
articular swelling score, average ([3]; before administration, cynomolgus monkey, 10 per group, control group average 49): 49
articular swelling score, average ([3]; day 14 of administration, oral, day 36 to day 50, control group average 82): 61
effect on aggravation of arthritis ([3]; oral administration day 36 to day 50, cynomolgus monkey): significantly suppressed aggravation of arthritis
biological availability ([4]; female SD rats, oral 10 mg/kg vs intravenous 1 mg/kg): 62%
AUC ([4]; intravenous administration 1 mg/kg): 264 ng·h/mL
AUC ([4]; oral administration 10 mg/kg): 1640 ng·h/mL
solubility after 30 min ([5]; listed as free base•Form-I crystal): 66 µg/mL (≈ 158 µM)

CCn1cc(CN(C(=O)[C@H]2CCCc3c(O)cccc32)c2ccc(C(C)C)nc2)cn1 [Example 22, (1S)-(−)-N-[(1-ethyl-1H-pyrazol-4-yl)methyl]-5-hydroxy-N-(6-isopropylpyridin-3-yl)-1,2,3,4-tetrahydronaphthalene-1-carboxamide]
dissolution rate (comparison) [6]: faster than that of the free base•Form-I crystal

CCn1cc(CN(C(=O)[C@H]2CCCc3c(O)cccc32)c2ccc(C(C)C)nc2)cn1 [Example 23, (1S)-(−)-N-[(1-ethyl-1H-pyrazol-4-yl)methyl]-5-hydroxy-N-(6-isopropylpyridin-3-yl)-1,2,3,4-tetrahydronaphthalene-1-carboxamide]
solubility relative to free base•Form-I crystal ([5]; JP Solution 2, 37° C., 30 min): 2.5 fold
solubility relative to the racemate ([5]; JP Solution 2, 37° C., 30 min): about 5 fold
solubility after 30 min [5]: 165 µg/mL (≈ 394 µM)

CCn1cc(CN(C(=O)[C@H]2CCCc3c(O)cccc32)c2ccc(C(C)C)nc2)cn1.Cl [Example 24, (1S)-(−)-N-[(1-ethyl-1H-pyrazol-4-yl)methyl]-5-hydroxy-N-(6-isopropylpyridin-3-yl)-1,2,3,4-tetrahydronaphthalene-1-carboxamide monohydrochloride]
dissolution rate (comparison) [6]: faster than that of the free base•Form-I crystal

Br.CCn1cc(CN(C(=O)[C@H]2CCCc3c(O)cccc32)c2ccc(C(C)C)nc2)cn1 [Example 25, (1S)-(−)-N-[(1-ethyl-1H-pyrazol-4-yl)methyl]-5-hydroxy-N-(6-isopropylpyridin-3-yl)-1,2,3,4-tetrahydronaphthalene-1-carboxamide monohydrobromide]
dissolution rate (comparison) [6]: faster than that of the free base•Form-I crystal

Reference: US20080194640A1, “Optically Active Tetrahydronaphthalene Derivative” (priority 2005, published 2008)
